# Starred links: 1 amine or outer side, 2 acyl side, 3 side chain; linkers in the order of their positions; H or OH if unused. Non-standard residues stand in square brackets, D forms with d. Residues, ends and D or L forms follow the SMILES beside them. Groups on a side chain read outwards from the residue. γGlu = O=C(O)[C@H](CCC(=O)[*:2])N[*:1]; Dap = NC[C@H](N)C(=O)O; Aoc = NCCCCCCCC(=O)O; CO = O=C([*:1])[*:2]
# What was measured:
# PSMA on LNCaP cells [1] = target: T1, PSMA on LNCaP cells (Homo sapiens, UniProt Q04609); assay: Spacer-dependent binding studies of DUPA-Linker-99mTc compounds on LNCaP cells; conditions: 37° C., 1 hour, 0 nM-1280 nM, read-out: Kd from cell bound radioactivity versus concentration of DUPA-Linker-99Tc imaging agents
# T1 construct: LNCaP cells (a human prostate cancer cell line over-expressing PSMA); host or cells: LNCaP
# T1 sequence (Q04609 whole entry): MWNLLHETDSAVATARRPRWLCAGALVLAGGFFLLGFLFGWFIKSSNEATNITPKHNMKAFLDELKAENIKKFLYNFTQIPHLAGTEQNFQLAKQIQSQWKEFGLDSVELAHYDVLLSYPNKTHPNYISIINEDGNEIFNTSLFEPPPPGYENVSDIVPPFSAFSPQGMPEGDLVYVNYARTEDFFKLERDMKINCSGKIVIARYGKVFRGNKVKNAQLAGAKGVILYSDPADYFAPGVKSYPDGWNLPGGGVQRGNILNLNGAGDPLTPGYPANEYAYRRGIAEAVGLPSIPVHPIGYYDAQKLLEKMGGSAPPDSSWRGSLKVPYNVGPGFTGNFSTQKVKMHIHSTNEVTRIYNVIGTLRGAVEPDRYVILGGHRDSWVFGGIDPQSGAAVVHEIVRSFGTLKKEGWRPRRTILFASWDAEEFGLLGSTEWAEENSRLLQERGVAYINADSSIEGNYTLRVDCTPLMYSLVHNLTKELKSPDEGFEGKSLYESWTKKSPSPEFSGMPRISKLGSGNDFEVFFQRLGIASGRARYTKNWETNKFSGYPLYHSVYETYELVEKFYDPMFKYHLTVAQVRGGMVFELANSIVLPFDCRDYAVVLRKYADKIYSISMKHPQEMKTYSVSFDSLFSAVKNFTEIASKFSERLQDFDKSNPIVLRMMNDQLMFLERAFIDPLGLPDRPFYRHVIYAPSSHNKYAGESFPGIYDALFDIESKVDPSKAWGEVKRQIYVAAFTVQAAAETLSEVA
# Protocol: Cells were then incubated with increasing concentrations of SK60-99 mTc (zero atom spacer), SK62-99 mTc (7 atom spacer), SK28-99 mTc (14 atom spacer), SK38-99 mTc (16 atom spacer) and SK57-99 mTc (24 atom spacer) from 0 nM-1280 nM (triplicates for each concentration) in a 5%-CO2 atmosphere at 37° C. for 1 hour. Also, in separate plates, cells was incubated with 50 uM PMPA in a 5%-CO2 atmosphere at 37° C. for 30 minutes and then incubated with increasing concentration of SK60-99 mTc (zero atom spacer), SK62-99 mTc (7 atom spacer), SK28-99 mTc (14 atom spacer), SK38-99 mTc (16 atom spacer) and SK57-99 mTc (24 atom spacer) from 0 nM-1280 nM (triplicates for each concentration) in a 5%-CO2 atmosphere at 37° C. for 1 hour (competition studies; data not shown). […] The plot of cell bound radioactivity verses concentration of the radiolabeled compound was used to calculate the Kd value. The plot of % saturation verses concentration of the radiolabeled compound as well as the plot for Kd verses spacer length are shown (FIGS. 4 and 5).
# PSMA on LNCaP cells [2] = target: T1, PSMA on LNCaP cells; assay: Quantification of PSMA molecules on LNCaP cells (cell bound radioactivity at saturation); assay type: cell-based; conditions: for cell bound radioactivity at the saturation point: 1 hour
# Protocol: Cells were then incubated with increasing concentrations of SK28-99 mTc from 0 nM-450 nM (triplicates for each concentration) in a 5%-CO2 atmosphere at 4° C. or at 37° C. for 1 hour. […] The radioactivity of a 30 nM sample of SK28-99 mTc (20 uL) was counted. At 4° C. (to prevent endocytosis of PSMA), the number of moles in the 30 nM sample=30 nM×20 uL=(30×10-9 mol/L)×(20×10-6 L)=6×10-13 mol. The number of atoms in the 30 nM sample=(6×10-13 mol)×(6.023×1023 atom/mol)=3.6×1011 atom. The radio count of 20 uL of the 30 nM sample=20477 cpm (cpm/atom=3.6×1011/20477=1.76×107). The cell bound radioactivity at the saturation point at 4° C.=12 000 cpm. The number of atoms at the saturation point=(1.76×107 atom)×(12 000 cpm). The number of cells/well=245,000.
# The cell bound radioactivity at the saturation point at 37° C.=33,000 cpm (approximately three fold higher than at 4° C.).
# PSMA on LNCaP cells [3] = target: T1, PSMA on LNCaP cells; assay: In vitro binding studies using LNCaP cells and SK28-99mTc, with and without excess PMPA; conditions: 37° C., 1 hour, 0 nM-450 nM, read-out: Kd from cell bound radioactivity versus concentration
# Protocol: Cells of one 24-well plate were incubated with increasing concentrations of SK28-99 mTc from 0 nM-450 nM (triplicates for each concentration) in a 5%-CO2 atmosphere at 37° C. for 1 hour. Cells of the second 24-well plate were incubated with 50 uM PMPA in a 5%-CO2 atmosphere at 37° C. for 30 minutes, then incubated with increasing concentrations of SK28-99 mTc from 0 nM-450 nM (triplicates for each concentration) in a 5%-CO2 atmosphere at 37° C. for 1 hour (competition study). […] The competition study was used to determine the binding specificity of the ligand (DUPA) to the PSMA (FIG. 1).
# LNCaP cells (150,000 cells/well) were seeded onto 24-well Falcon plates and allowed to form confluent monolayers over 48 h. Spent medium in each well was replaced with fresh medium (0.5 mL) containing increasing concentrations of DUPA-99 mTc in the presence (▴) or absence (▪) of excess PMPA. After incubating for 1 h at 37° C., cells were rinsed with culture medium (2×1.0 mL) and tris buffer (1×1.0 mL) to remove any unbound radioactivity. After suspending cells in tris buffer (0.5 mL), cell bound radioactivity was counted using a γ-counter (Packard, Packard Instrument Company). The dissociation constant (KD) was calculated using a plot of cell bound radioactivity versus the concentration of the radiotracer using nonlinear regression in GraphPad Prism 4. Error bars represent 1 standard deviation (n=3). […]
# PSMA = PSMA (Homo sapiens, UniProt Q04609); conditions: urea PSMA ligands of formula drawing 51, R^1 varied; cited from earlier work
# Sequence of PSMA (Q04609 whole entry, species assumed): as the sequence (Q04609 whole entry) above
Kd (PSMA on LNCaP cells [1]) [nM],Compound,Ki (PSMA) [nM],other results
171,N[C@@H](CNC(=O)CC[C@H](NC(=O)N[C@@H](CCC(=O)O)C(=O)O)C(=O)O)C(=O)N[C@@H](CC(=O)O)C(=O)N[C@@H](CS)C(=O)O [0-atom linker] (H-[Dap]([γGlu-CO-Glu])-Asp-Cys-OH),–,–
68,N[C@@H](CNC(=O)[C@H](Cc1ccccc1)NC(=O)CC[C@H](NC(=O)CC[C@H](NC(=O)N[C@@H](CCC(=O)O)C(=O)O)C(=O)O)C(=O)O)C(=O)N[C@@H](CC(=O)O)C(=O)N[C@@H](CS)C(=O)O [7-atom linker] (H-[Dap]([Phe-γGlu-γGlu-CO-Glu])-Asp-Cys-OH),–,–
40,N[C@@H](CNC(=O)CC[C@H](NC(=O)[C@H](Cc1ccccc1)NC(=O)CCCCCCCNC(=O)CC[C@H](NC(=O)N[C@@H](CCC(=O)O)C(=O)O)C(=O)O)C(=O)O)C(=O)N[C@@H](CC(=O)O)C(=O)N[C@@H](CS)C(=O)O [16-atom linker] (H-[Dap]([γGlu-Phe-Aoc-γGlu-CO-Glu])-Asp-Cys-OH),–,–
–,O=C(O)CCC(NC(=O)NC(CS)C(=O)O)C(=O)O (stereo not shown) [drawing 52 (R = H)],6.9,–
–,CC(C)(C)SCC(NC(=O)NC(CCC(=O)O)C(=O)O)C(=O)O (stereo not shown) [drawing 52 (R = tert-Bu)],29,–

Compound,Kd (PSMA on LNCaP cells [1]) [nM],Ki (PSMA) [nM],other results
"N[C@@H](CNC(=O)[C@H](Cc1ccccc1)NC(=O)[C@H](Cc1ccccc1)NC(=O)CCCCCCCNC(=O)CC[C@H](NC(=O)N[C@@H](CCC(=O)O)C(=O)O)C(=O)O)C(=O)N[C@@H](CC(=O)O)C(=O)N[C@@H](CS)C(=O)O [SK28-^99mTc, metal not drawn] (H-[Dap]([Phe-Phe-Aoc-γGlu-CO-Glu])-Asp-Cys-OH)",15,–,"cell bound radioactivity at saturation, 37° C. relative to 4° C. (PSMA on LNCaP cells [2]): approximately three; cell bound radioactivity at the saturation point (PSMA on LNCaP cells [2]; 4° C.): 12 000 cpm; cell bound radioactivity at the saturation point (PSMA on LNCaP cells [2]; 37° C.): 33,000 cpm; Kd (PSMA on LNCaP cells [3]): 18.1 nM"

# From US20110288152A1, “PSMA BINDING LIGAND-LINKER CONJUGATES AND METHODS FOR USING” (Purdue Research Foundation, priority 2008, published 2011)
